One compound from patent US9073863B2, “Cyanoquinoline compounds having activity in correcting mutant-CFTR processing and increasing ion transport and uses thereof” (The Regents of the University of California, priority 2011, dated 2015) can be followed below.

Broadly, the EC50 is the concentration giving half of the maximal effect.

Assay [1] deals with T1, ΔF508-CFTR (Homo sapiens, UniProt P13569, DEL508-508).
T1 construct: expressed in transfected cells; host or cells: Fischer rat thyroid (FRT) epithelial cells, stably transfected
T1 sequence (P13569 with tags, fused parts or gaps DEL508-508): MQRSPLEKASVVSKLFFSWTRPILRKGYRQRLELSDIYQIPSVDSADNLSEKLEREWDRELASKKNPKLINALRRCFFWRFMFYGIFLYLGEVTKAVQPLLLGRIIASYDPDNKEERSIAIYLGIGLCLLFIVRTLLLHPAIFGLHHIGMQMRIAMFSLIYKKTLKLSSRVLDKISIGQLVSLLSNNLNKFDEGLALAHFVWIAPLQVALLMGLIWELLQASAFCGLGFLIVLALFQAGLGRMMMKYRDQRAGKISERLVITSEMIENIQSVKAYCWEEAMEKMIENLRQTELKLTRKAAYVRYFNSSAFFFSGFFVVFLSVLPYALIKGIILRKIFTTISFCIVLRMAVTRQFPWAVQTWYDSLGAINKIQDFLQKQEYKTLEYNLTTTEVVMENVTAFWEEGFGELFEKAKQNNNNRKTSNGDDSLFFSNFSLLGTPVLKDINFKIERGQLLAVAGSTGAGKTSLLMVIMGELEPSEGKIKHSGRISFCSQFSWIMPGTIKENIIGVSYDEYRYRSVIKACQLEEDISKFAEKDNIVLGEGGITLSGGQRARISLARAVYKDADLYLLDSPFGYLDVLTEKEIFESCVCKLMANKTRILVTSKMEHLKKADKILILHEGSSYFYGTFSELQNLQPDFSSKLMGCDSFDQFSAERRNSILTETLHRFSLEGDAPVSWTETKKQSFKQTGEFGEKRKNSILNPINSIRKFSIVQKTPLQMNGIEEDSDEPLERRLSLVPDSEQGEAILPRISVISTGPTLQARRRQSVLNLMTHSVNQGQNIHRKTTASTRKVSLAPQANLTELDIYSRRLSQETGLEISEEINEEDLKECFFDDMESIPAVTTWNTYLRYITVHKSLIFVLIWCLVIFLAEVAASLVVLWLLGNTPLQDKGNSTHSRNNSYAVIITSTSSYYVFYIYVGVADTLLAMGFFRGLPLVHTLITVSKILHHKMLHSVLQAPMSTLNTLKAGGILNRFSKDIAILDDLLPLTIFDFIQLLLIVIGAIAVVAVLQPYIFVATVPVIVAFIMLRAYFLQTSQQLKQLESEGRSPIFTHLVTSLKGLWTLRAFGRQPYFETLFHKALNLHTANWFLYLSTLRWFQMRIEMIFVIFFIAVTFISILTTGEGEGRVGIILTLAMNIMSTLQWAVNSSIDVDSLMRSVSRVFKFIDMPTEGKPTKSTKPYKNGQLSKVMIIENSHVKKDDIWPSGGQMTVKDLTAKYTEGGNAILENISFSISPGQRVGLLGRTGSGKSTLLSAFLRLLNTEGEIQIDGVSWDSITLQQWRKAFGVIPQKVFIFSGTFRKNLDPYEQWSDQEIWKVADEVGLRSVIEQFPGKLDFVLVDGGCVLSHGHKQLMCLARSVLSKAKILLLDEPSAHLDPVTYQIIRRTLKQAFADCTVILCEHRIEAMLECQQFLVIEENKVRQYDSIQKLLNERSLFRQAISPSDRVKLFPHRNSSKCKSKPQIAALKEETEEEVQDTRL
Put plainly: Corrector assay, YFP fluorescence plate reader iodide influx in ΔF508-CFTR expressing FRT cells. It counts as cell-based. The method, boiled down:
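Corrector mode: cells treated 18–24 h at 37 °C with compound (25 μM screen, 0–25 μM dose-response), then 10 min forskolin 20 μM + genistein 50 μM. Potentiator mode: 27 °C-rescued cells given forskolin 20 μM + compound (0–25 or 0–50 μM) for 10 min. Initial iodide influx rate from exponential fit of YFP quenching, normalized to background-subtracted initial fluorescence.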

Assay [2] deals with T1, ΔF508-CFTR. Put plainly: Potentiator assay by YFP/iodide fluorescence quenching in ΔF508-CFTR expressing A549 cells. It counts as cell-based. The method, then: Representative fluorescence quenching curves (FIG. 6B (top)) shown with deduced Compound 22 and genistein concentration dependence (FIG. 6B (bottom), SEM, n=4). Fluorescence plate reader assays in FIG. 6B confirmed that Compound 22 activated G551D-CFTR in the presence of forskolin, with lower maximal efficacy than genistein.
To test whether Compound 22 is active in a different cell background, potentiator and corrector assays were performed in ΔF508-CFTR transfected A549 cells, which are of human lung epithelial origin. […] Apparent EC50 for Compound 22 potentiator activity was about 8 μM (FIG. 6B). […] (FIG. 6C, top). Compound 22 was further tested for corrector activity in A549 cells under the low-temperature synergy condition; however, DF508-CFTR was fully activated by forskolin ([…]) and genistein ([…]) in this cell model (FIG. 6C, bottom).

`COc1cccc(C(=O)NCCNc2nc3cc(C)cc(C)c3cc2C#N)c1` [Compound 22, N-(2-((3-Cyano-5,7-dimethylquinolin-2-yl)amino)ethyl)-3-methoxybenzamide]: at ΔF508-CFTR [1] (Compound 22 (20 µM) or Corr-4a (10 µM), 24 h, 27° C., vs low-temperature rescue control), the “iodide influx after incubation at 27° C.” value is listed as “substantially increased iodide influx”. Further, at ΔF508-CFTR [1] (Compound 22 (20 µM) or Corr-4a (10 µM), 24 h, 37° C., with genistein), the “iodide influx after incubation at 37° C.” value is recorded as “increased iodide influx”. The “corrector and potentiator activities, in words” value on ΔF508-CFTR [1] (concentration-dependence in corrector and potentiator I− influx assays (FIG. 2, FIG. 7)) is “both corrector and potentiator activities”. The “additivity of corrector action with Corr-4a (iodide influx)” value on ΔF508-CFTR [1] (maximal concentrations of Compound 22 and Corr-4a, alone or in combination) is reported as “significant additivity”. For the same compound, on ΔF508-CFTR [2], the “potentiator activity in A549 cells, in words” value was “comparable to that in FRT cells”. In addition, the EC50 at ΔF508-CFTR [2] (A549 cells, read-out: Apparent EC50 for potentiator activity) is around 8 µM.
